Laboratory results taken from US20030130180A1, “Utilization of an aminopeptidase inhibitor” (priority 2000, published 2003).

Test system: Karpas cells
Assay: Detection of surface protein combinations of the protein network on untreated (V1) and actinonin-treated (V2) Karpas cells
Assay type: cell-based
Conditions: for V2 no. of cells: actinonin-treated Karpas cells
Source text: Principally, detecting of the surface protein combinations may comprise procedural steps of an automated method for determining molecular classes, molecular groups or molecular parts in a solid or liquid object according to DE 197 09 348 C. In these steps, surface proteins may be examined and measured in one and the same object, i.e. in a sample of immune cells and/or tumor cells for example, by sequentially applying reagent solutions Yn (n=1,2,3, . . . N) by means of an automated apparatus, said procedural steps being: I. taking a first reagent solution Y1 from a vessel containing the reagent solution, II. applying said reagent solution Y1 to the object which is on an object slide, III. allowing the reagent solution to react for an automatically set period of time, IV. recording at least one individual labeling pattern of the object previously labeled with said first reagent solution Y1, V. repeating steps I-IV by applying said first reagent solution Y1 or a second reagent solution Y2 or a mixture of said first and second reagent solutions, and VI. repeating steps I to V with further reagent solutions Yn (n=2,3, . . . N) or a mixture thereof and whereby the labeling distribution patterns obtained in each cycle of the method are turned into a complex molecular combination pattern of the object to be examined by computer-aided image overlay. From this combination pattern, information may be gained on the presence of the above mentioned proteins, thus also allowing detection of the surface protein combinations, if the reagent solutions used contain labeled substances directed against the proteins in question. In numerous examinations, it was possible to identify the 30 cell surface proteins already listed above which belong to a specific protein network controlling the early polarization stages of tumor cells and immune cells. In a further examination, surface protein combinations of this protein network of Karpas cells were detected, both in untreated form and after treatment with the aminopeptidase inhibitor actinonin. For this purpose, two groups V1 and V2 of Karpas cells were formed, with the cells of group Vl remaining untreated, while the cells of group V2 were treated with actinonin. Table 2 lists those surface protein combinations which are present both in the actinonin-treated cells and in the untreated cells. However, this table and the further tables 3 and 4 only give examples of 18 of the 30 proteins, with the detected proteins being designated 1 and the non-detected proteins being designated 0. The proteins are continuously numbered 1 to 18, with the nomenclature being notable from table 1. [table] The cell numbers stated in tables 2 to 4 refer to each 1,000 cells examined in groups V1 and V2. Table 3 lists the surface protein combinations which only occur in the untreated Karpas cells and are never found in the actinonin-treated Karpas cells. The number of protein combinations listed in this table 3 amounts to 131. Finally, table 4 exclusively lists those surface protein combinations which occur exclusively in the actinonin-treated Karpas cells. It may be gathered from tables 2 to 4 that, if one examines merely 18 proteins of the 30 proteins, a total of 394 different surface protein combinations will occur, with a total of 334 different combinations occurring in the untreated cells and a total of 263 different combinations being detected in the treated cells.

CCCCC[C@H](CC(=O)NO)C(=O)N[C@H](C(=O)N1CCC[C@H]1CO)C(C)C [actinonin]
V2 No. of cells In 1/1000 (actinonin-treated Karpas cells (V2), surface protein combination No. 118, binary code 000100010100000000): 0.0 1/1000 | V2 No. of cells In 1/1000 (actinonin-treated Karpas cells (V2), surface protein combination No. 119, binary code 000100010001011000): 0.0 1/1000 | V2 No. of cells In 1/1000 (actinonin-treated Karpas cells (V2), surface protein combination No. 120, binary code 000100001001001000): 0.0 1/1000 | V2 No. of cells In 1/1000 (actinonin-treated Karpas cells (V2), surface protein combination No. 121, binary code 000100000101001000): 0.0 1/1000 | V2 No. of cells In 1/1000 (actinonin-treated Karpas cells (V2), surface protein combination No. 122, binary code 000100000101000000): 0.0 1/1000 | V2 No. of cells In 1/1000 (actinonin-treated Karpas cells (V2), surface protein combination No. 123, binary code 000100000011000000): 0.0 1/1000 | V2 No. of cells In 1/1000 (actinonin-treated Karpas cells (V2), surface protein combination No. 124, binary code 000000011101011000): 0.0 1/1000 | V2 No. of cells In 1/1000 (actinonin-treated Karpas cells (V2), surface protein combination No. 125, binary code 000000011000001000): 0.0 1/1000 | V2 No. of cells In 1/1000 (actinonin-treated Karpas cells (V2), surface protein combination No. 126, binary code 000000010100000100): 0.0 1/1000 | V2 No. of cells In 1/1000 (actinonin-treated Karpas cells (V2), surface protein combination No. 127, binary code 000000010000011000): 0.0 1/1000 | V2 No. of cells In 1/1000 (actinonin-treated Karpas cells (V2), surface protein combination No. 128, binary code 000000010000000100): 0.0 1/1000 | V2 No. of cells In 1/1000 (actinonin-treated Karpas cells (V2), surface protein combination No. 129, binary code 000000001011000000): 0.0 1/1000 | V2 No. of cells In 1/1000 (actinonin-treated Karpas cells (V2), surface protein combination No. 130, binary code 000000000001001100): 0.0 1/1000 | V2 No. of cells In 1/1000 (actinonin-treated Karpas cells (V2), surface protein combination No. 131, binary code 000000000001000100): 0.0 1/1000 | V2 no. of cells In 1/1OOO, total (actinonin-treated Karpas cells (V2), total over all 203 protein combinations of Table 2): 990.9 1/1OOO | V2 No. of cells In 1/1000, total (actinonin-treated Karpas cells (V2), total over the 131 surface protein combinations of Table 3): 0 1/1000 | V2 no. of cells (protein code No. 1, proteins 1-18 binary 000000000000000000): 153.2 1/1OOO | V2 no. of cells (protein code No. 2, proteins 1-18 binary 001000010101001000): 91.9 1/1OOO | V2 no. of cells (protein code No. 3, proteins 1-18 binary 001000010001000000): 57.6 1/1OOO | V2 no. of cells (protein code No. 4, proteins 1-18 binary 000000010001000000): 62.2 1/1OOO | V2 no. of cells (protein code No. 5, proteins 1-18 binary 001000010001001000): 37.9 1/1OOO | V2 no. of cells (protein code No. 6, proteins 1-18 binary 001000010101000000): 44.3 1/1OOO | V2 no. of cells (protein code No. 7, proteins 1-18 binary 001100010101001000): 37.6 1/1OOO | V2 no. of cells (protein code No. 8, proteins 1-18 binary 000000010000000000): 41.8 1/1OOO | V2 no. of cells (protein code No. 9, proteins 1-18 binary 001000010111001000): 31.4 1/1OOO | V2 no. of cells (protein code No. 10, proteins 1-18 binary 001100010111011000): 29.7 1/1OOO | V2 no. of cells (protein code No. 11, proteins 1-18 binary 000000000001000000): 29.3 1/1OOO | V2 no. of cells (protein code No. 12, proteins 1-18 binary 001100010111001000): 24.2 1/1OOO | V2 no. of cells (protein code No. 13, proteins 1-18 binary 001000010011001000): 15.4 1/1OOO | V2 no. of cells (protein code No. 14, proteins 1-18 binary 000000010101000000): 22.3 1/1OOO | V2 no. of cells (protein code No. 15, proteins 1-18 binary 101100010111011000): 17.3 1/1OOO | V2 no. of cells (protein code No. 16, proteins 1-18 binary 001000010111011000): 15.0 1/1OOO | V2 no. of cells (protein code No. 17, proteins 1-18 binary 001000010101011000): 15.5 1/1OOO | V2 no. of cells (protein code No. 18, proteins 1-18 binary 001100010101011000): 9.7 1/1OOO | V2 no. of cells (protein code No. 19, proteins 1-18 binary 000000010101001000): 13.4 1/1OOO | V2 no. of cells (protein code No. 20, proteins 1-18 binary 000000000100000000): 14.5 1/1OOO | V2 no. of cells (protein code No. 21, proteins 1-18 binary 001100010001001000): 6.3 1/1OOO | V2 no. of cells (protein code No. 22, proteins 1-18 binary 001000010011000000): 6.7 1/1OOO | V2 no. of cells (protein code No. 23 (second line so numbered), proteins 1-18 binary 000000000101000000): 11.0 1/1OOO | V2 no. of cells (protein code No. 23, proteins 1-18 binary 001000000001000000): 7.4 1/1OOO | V2 no. of cells (protein code No. 24, proteins 1-18 binary 001000010000000000): 5.7 1/1OOO | V2 no. of cells (protein code No. 25, proteins 1-18 binary 000000000000001000): 7.3 1/1OOO | V2 no. of cells (protein code No. 27, proteins 1-18 binary 010000001100000000): 7.5 1/1OOO | V2 no. of cells (protein code No. 28, proteins 1-18 binary 000000010100000000): 8.9 1/1OOO | V2 no. of cells (protein code No. 29, proteins 1-18 binary 000000010001001000): 7.0 1/1OOO | V2 no. of cells (protein code No. 30, proteins 1-18 binary 001100010011001000): 4.0 1/1OOO | V2 no. of cells (protein code No. 31, proteins 1-18 binary 101000010111011000): 2.8 1/1OOO | V2 no. of cells (protein code No. 32, proteins 1-18 binary 000000001000000000): 6.1 1/1OOO | V2 no. of cells (protein code No. 33, proteins 1-18 binary 001000010111000000): 5.3 1/1OOO | V2 no. of cells (protein code No. 34, proteins 1-18 binary 001000010011011000): 3.2 1/1OOO | V2 no. of cells (protein code No. 35, proteins 1-18 binary 001000010001011000): 4.8 1/1OOO | V2 no. of cells (protein code No. 37, proteins 1-18 binary 010000001100001000): 3.9 1/1OOO | V2 no. of cells (protein code No. 38 (first line so numbered), proteins 1-18 binary 000000001100000000): 5.4 1/1OOO | V2 no. of cells (protein code No. 38 (second line so numbered), proteins 1-18 binary 001000011101001000): 4.3 1/1OOO | V2 no. of cells (protein code No. 39, proteins 1-18 binary 000000010011000000): 2.5 1/1OOO | V2 no. of cells (protein code No. 40, proteins 1-18 binary 001000000101000000): 4.7 1/1OOO | V2 no. of cells (protein code No. 41, proteins 1-18 binary 001100010011011000): 4.0 1/1OOO | V2 no. of cells (protein code No. 42, proteins 1-18 binary 001100010101000000): 0.8 1/1OOO | V2 no. of cells (protein code No. 43, proteins 1-18 binary 001000000000000000): 2.8 1/1OOO | V2 no. of cells (protein code No. 44, proteins 1-18 binary 001000011101000000): 3.7 1/1OOO | V2 no. of cells (protein code No. 45, proteins 1-18 binary 001100010001000000): 0.6 1/1OOO | V2 no. of cells (protein code No. 46, proteins 1-18 binary 001000011001000000): 2.5 1/1OOO | V2 no. of cells (protein code No. 47, proteins 1-18 binary 010000001100001100): 2.2 1/1OOO | V2 no. of cells (protein code No. 48, proteins 1-18 binary 101100010101011000): 2.2 1/1OOO | V2 no. of cells (protein code No. 49, proteins 1-18 binary 001000010100000000): 2.7 1/1OOO | V2 no. of cells (protein code No. 50, proteins 1-18 binary 011000011101001000): 2.4 1/1OOO | V2 no. of cells (protein code No. 51, proteins 1-18 binary 001000011111001000): 2.0 1/1OOO | V2 no. of cells (protein code No. 52, proteins 1-18 binary 001100010001011000): 1.0 1/1OOO | V2 no. of cells (protein code No. 53, proteins 1-18 binary 001000010000001000): 1.0 1/1OOO
